Test results reported in US9018250B2, “Pharmaceutical composition and dosage form comprising dronedarone, and preparation method thereof” (Sanofi, priority 2010, dated 2015).
Values after ≈ are worked out from the molar mass of the structure shown. Where two headings read alike, the source gives them in different places.

Experiments:
[1] = Solubility of dronedarone hydrochloride and base form in lipid excipients (Table A); type: physicochemical
[2] = In-vitro dissolution test with a jump in pH (simulated gastric pH 4, then simulated intestinal pH 6.5); type: physicochemical; conditions: for percentage of active principle released (dissolution curves, in words): pH 4 for 60 min, then pH 6.5 up to 180 min, FIG. 1-7
Excerpt: In order to reproduce the effect of pH on the active principle and in particular on its dissolution during its passage through the gastrointestinal tract, a gastrointestinal environment was simulated by reproducing the pH of the stomach and then the pH of the intestine with a jump in pH. The dissolution kinetics was investigated using a simple in-vitro dissolution test with a jump in pH.
The principle consists of determining the dissolution of the formulated active principle by studying its dissolution kinetics at 37° C., firstly in simulated gastric medium at pH 4, then in simulated intestinal medium at pH 6.5, in a time interval consistent with the gastrointestinal tract.
Equipment: precision balance (Mettler AE200 or AT261), pH meter (Knick or Schott Geräte or Inolab), thermostated Dissolutest 6 or 7 bowls (Sotax AT6 or AT7), 5 μm filter (PALL Versapore 25 mm) with syringe (Térumo), UV spectrophotometer (Gilford Response II or Perkin Elmer) or HPLC (Merck or Agilent).
Dissolution media: The simulated physiological media representative of the gastrointestinal tract are obtained from simulated gastric and intestinal fluids recommended by the USP, but used without pepsin or pancreatin. • simulated gastric fluid—USP (without pepsin): • 2 g of sodium chloride per 900 ml of distilled water, • pH adjusted to 1.2 with concentrated hydrochloric acid (37%), • Q.S. 1000 ml with distilled water. • simulated intestinal fluid—USP (without pancreatin): • 6.8 g of potassium dihydrogen phosphate per 900 ml of distilled water, • pH adjusted to 7.5 with concentrated sodium hydroxide (10 M), • Q.S. 1000 ml with distilled water.
The simulated gastric medium of pH 4 is thus obtained by mixing the two simulated fluids in various proportions, monitoring with a pH electrode. The dissolution medium of the intestinal type is adjusted to pH 6.5 with a few drops of concentrated soda (10M) to simulate passage of the active principle into the beginning of the intestine, without leading to dilution.
Standard solutions of active principle are prepared in a solvent medium, preferably in the mobile phase or ethanol or methanol, and then analyzed at the characteristic wavelength of the active principle. A calibration straight line showing the concentrations as a function of the optical densities (analysis by UV spectrophotometry) or of the areas under peak (HPLC analysis) is then determined. The equation of the straight line obtained can be used for determining the concentration of dissolved active principle from measurement of the optical density or of the area under peak.
The concentration used corresponds to the dose in 250 ml (i.e. 4 capsules in a 500-ml bowl). The dissolution kinetics is first investigated in simulated gastric medium of pH 4 in the dissolution test in bowls thermostated at 37° C., with paddle stirring at 75 rpm, for 1 hour with sampling at times 5, 15, 30, 45 and 60 minutes, then in intestinal medium with an increase in pH to 6.5 by adding a small volume of concentrated soda (example: 0.400 ml for 500 ml of medium at pH 4), monitoring with a pH electrode. The kinetics is monitored for 3 hours with sampling at times 75, 90, 120 and 180 minutes and each sample is filtered at 5 μm and then analyzed.
Two methods of analysis can be used depending on the sensitivity required and the dosage form under investigation: UV spectrophotometry (for active principle only) or HPLC (for active principle only or formulated).
The concentration at a time t is determined based on the previously established calibration. During analysis by UV spectrophotometry, the whole absorption spectrum is monitored at least at the end of the kinetic study. In addition, the pH of the medium is monitored at the end of the kinetic study. […]

[3] = cited from earlier work
[4] = cited from earlier work; remark: listed apart in the source
[5] = Capmul PG8 (HLB 5), oil or lipid, in Capmul PG8 (HLB 5), RT, read-out: Solubility
[6] = Captex 355, oil or lipid, in Captex 355, RT, read-out: Solubility
[7] = Cremophor RH 40 (HLB 14), 55 °C, oil or lipid, in Cremophor RH 40 (HLB 14), 55° C., read-out: Solubility
[8] = Gelucire 33/01 (HLB 1), 55 °C, oil or lipid, in Gelucire 33/01 (HLB 1), 55° C., read-out: Solubility
[9] = Gelucire 43/01 (HLB 1), 55 °C, oil or lipid, in Gelucire 43/01 (HLB 1), 55° C., read-out: Solubility
[10] = Labrafac PG, oil or lipid, in Labrafac PG, RT, read-out: Solubility
[11] = Labrafil M1944Cs, oil or lipid, in Labrafil M1944Cs, RT, read-out: Solubility
[12] = Labrasol ALF, oil or lipid, in Labrasol ALF, RT, read-out: Solubility
[13] = Lauroglycol 90, oil or lipid, in Lauroglycol 90, RT, read-out: Solubility
[14] = Lipophilic Labrafac, oil or lipid, in Lipophilic Labrafac, RT, read-out: Solubility
[15] = Miglyol 812N, oil or lipid, in Miglyol 812N, RT, read-out: Solubility
[16] = PEG 400, organic solvent or mixture, in PEG 400, RT, read-out: Solubility
[17] = propylene glycol, organic solvent or mixture, in propylene glycol, RT, read-out: Solubility
[18] = soybean oil, oil or lipid, in soybean oil, RT, read-out: Solubility
[19] = surfactant Chrem RH40 (HLB 14), capsules G24 (HCl) / G25 (base)
[20] = surfactant Pluronic L44 (HLB 12), capsules G26 (HCl) / G27 (base), pH 6.5 after jump, 37° C.
[21] = surfactant Polox 188 (HLB 29), capsules G22 (HCl) / G23 (base)
[22] = surfactant Polox 407 (HLB 22), capsules G1 (HCl) / G5 (base)
[23] = surfactant Tween 60 (HLB 15), capsules G28 (HCl) / G29 (base)

| Structure (SMILES) | solubility [1, 5] [mg/mL] | solubility [1, 6] [mg/mL] | solubility [1, 7] [mg/mL] | solubility [1, 8] [mg/mL] | solubility [1, 9] [mg/mL] | solubility [1, 10] [mg/mL] | solubility [1, 11] [mg/mL] | solubility [1, 12] [mg/mL] | solubility [1, 13] [mg/mL] | solubility [1, 14] [mg/mL] | solubility [1, 15] [mg/mL] | solubility [1, 16] [mg/mL] | solubility [1, 17] [mg/mL] | solubility [1, 18] [mg/mL] | percentage of active principle released (dissolution curves, in words) [2] | % of dronedarone at 180 min [2, 19] [%] | % of dronedarone at 180 min [2, 20] [%] | % of dronedarone at 180 min [2, 21] [%] | % of dronedarone at 180 min [2, 22] [%] | % of dronedarone at 180 min [2, 23] [%] | also measured |
| --- | --- | --- | --- | --- | --- | --- | --- | --- | --- | --- | --- | --- | --- | --- | --- | --- | --- | --- | --- | --- | --- |
| CCCCc1oc2ccc(NS(C)(=O)=O)cc2c1C(=O)c1ccc(OCCCN(CCCC)CCCC)cc1.Cl [Dronedarone Hydrochloride, 2-n-butyl-3-[4-(3-di-n-butylaminopropoxy)benzoyl]-5-methylsulfonamidobenzofuran hydrochloride] | 10 | 0.0353 | 14.8 | 0.0962 | 0.0445 | 0.0416 | 0.504 | 4.84 | 2.09 | 0.0251 | 0.0409 | 13.2 | 15.8 | 0.0231 | better profiles for an HLB between 15 and 25 | 59.01 | 49.1 | 69.82 | 90.49 | 58.32 | behaviour on dilution to 1/10 with aqueous solution buffered at pH=7 ([3]; final pH of the medium=6.7): is precipitated; solubility ([3]; room temperature, pH=7): no more than 10 μg/ml |
| CCCCc1oc2ccc(NS(C)(=O)=O)cc2c1C(=O)c1ccc(OCCCN(CCCC)CCCC)cc1 [Dronedarone Base, 2-n-butyl-3-[4-(3-di-n-butylaminopropoxy)benzoyl]-5-methylsulfonamidobenzofuran] | 517 (≈ 929 mM) | 167 (≈ 299 mM) | > 313 | 371 (≈ 667 mM) | 259 (≈ 465 mM) | 184 (≈ 330 mM) | 208 (≈ 374 mM) | 401 (≈ 721 mM) | 311 (≈ 558 mM) | 129 (≈ 231 mM) | 144 (≈ 258 mM) | 273 (≈ 491 mM) | 18.2 (≈ 32.7 mM) | 60.7 (≈ 109 mM) | equivalent regardless of which nonionic surfactant is used | 85.3 | 76.38 | 71.32 | 72.89 | 81.12 | solubility ([1]; Crodamol EO (ethyl oleate), oil or lipid, in Crodamol EO (ethyl oleate), RT, read-out: Solubility): 154 mg/mL (≈ 276 mM); solubility ([1]; Gelucire 44/14 (HLB 14), 55 °C, oil or lipid, in Gelucire 44/14 (HLB 14), 55° C., read-out: Solubility): 633 mg/mL (≈ 1140 mM); solubility ([1]; Labrasol, oil or lipid, in Labrasol, RT, read-out: Solubility): > 400 mg/mL; solubility ([1]; ethanol, organic solvent or mixture, in ethanol, RT, read-out: Solubility): > 500 mg/mL; solubility ([1]; in Labrafil M1944Cs, RT): 192.6 mg/mL (≈ 346 mM); solubility ([1]; in Miglyol 812N, RT): 141.6 mg/mL (≈ 254 mM); solubility ([1]; in PEG 400, RT): 280.1 mg/mL (≈ 503 mM); solubility ([1]; in soybean oil, RT): 87.7 mg/mL (≈ 158 mM); solubility ([1]; oleic acid, oil or lipid, in Oleic acid, RT, read-out: Solubility): > 341 mg/mL; solubility ([1]; sweet almond oil, oil or lipid, in sweet almond oil, RT, read-out: Solubility): 45.2 mg/mL (≈ 81.2 mM); absolute bioavailability ([4]; taken with food): no more than 15%; absorption after oral administration ([4]; with a meal): at least 70% |
